Legend:
[1] = system: Smn protein in SMA patient fibroblast cells (GM03813); experiment: Smn protein assay in cultured cells (SMN HTRF); format: cell-based, human; settings: SMA patient fibroblast cells, 48 hours; for EC1.5x for Smn protein expression: 7-point concentration curve, SMN HTRF, concentration producing 1.5 times Smn protein vs DMSO vehicle control; for maximum fold (Fold) increase of Smn protein: 7-point concentration data, fold relative to vehicle control
How it was run: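 Smn protein quantified by HTRF with anti-SMN d2/kryptate pair, 665/620 nm ratio blank-corrected, in RIPA lysates of GM03813 fibroblasts after 48 h compound exposure (7 concentrations, 3.16-fold steps, triplicates). Values: concentration producing 1.5× vehicle Smn level, and maximal fold increase.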

[2] = system: SMN2 minigene mRNA (SMN2-A minigene) in HEK293H cells; experiment: SMN2 minigene mRNA splicing RT-qPCR assay in cultured cells; format: cell-based, human; settings: Homo sapiens, HEK293-H; concentration increasing full length SMN2 mRNA 1.5-fold relative to vehicle-treated cells; HEK293H cells with SMN2-A minigene, 24 hours, 7-point concentration data; read-out: EC1.5x for production of full length SMN2 mRNA
How it was run: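 EC1.5× = concentration raising full-length SMN2 minigene mRNA 1.5-fold over vehicle, from 7-point curves in duplicate. Stably transfected HEK293H cells exposed 24 h at 37 °C; lysates assayed by multiplex RT-qPCR, minigene FL signal normalized to GAPDH via modified ΔΔCt.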

melting point [°C] | Structure (SMILES) | EC1.5x for Smn protein expression [1] | maximum fold (Fold) increase of Smn protein [1] | EC (1.5-fold increase) [2] [µM]
235 to 240 | Cc1cn2nc(-c3cc(=O)n4cc(N5CCN[C@@H](C)C5)ccc4n3)cc2cn1 [Compound 441, 7-[(3S)-3-methylpiperazin-1-yl]-2-(6-methylpyrazolo[1,5-a]pyrazin-2-yl)-4H-pyrido[1,2-a]pyrimidin-4-one] | **** (an EC1.5x≤0.3 μM is indicated by four stars (****)) | ***** (a fold increase >1.65 is indicated by five stars (*****)) | < 0.1
258 to 260 | Cc1cn2nc(-c3cc(=O)n4cc(N5C[C@@H](C)N[C@@H](C)C5)ccc4n3)cc2cn1 [Compound 442, 7-[(3R,5S)-3,5-dimethylpiperazin-1-yl]-2-(6-methylpyrazolo[1,5-a]pyrazin-2-yl)-4H-pyrido[1,2-a]pyrimidin-4-one] | **** (an EC1.5x≤0.3 μM is indicated by four stars (****)) | ***** (a fold increase >1.65 is indicated by five stars (*****)) | < 0.1
208 to 210 | CCN(CC)C1CCN(c2ccc3nc(-c4ccc5nc(C)cn5c4)cc(=O)n3c2)CC1 [Compound 445, 7-[4-(diethylamino)piperidin-1-yl]-2-(2-methylimidazo[1,2-a]pyridin-6-yl)-4H-pyrido[1,2-a]pyrimidin-4-one] | *** (an EC1.5× between >0.3 μM and ≤1 μM is indicated by three stars (***)) | *** (a fold increase between >1.35 and ≤1.5 is indicated by three stars (***)) | < 0.1
164 to 171 | COc1ccc(-c2cc(=O)n3cc(N4CCC(N(C)CCO)CC4)cc(C)c3n2)cc1OC [Compound 446, 2-(3,4-dimethoxyphenyl)-7-{4-[(2-hydroxyethyl)(methyl)amino]piperidin-1-yl}-9-methyl-4H-pyrido[1,2-a]pyrimidin-4-one] | ** (an EC1.5× between >1 μM and ≤3 μM is indicated by two stars (**)) | *** (a fold increase between >1.35 and ≤1.5 is indicated by three stars (***)) | < 0.1
140 to 147 | CCc1cc(N2CCN[C@H](C)C2)cn2c(=O)cc(-c3ccc(OC)c(OC)c3)nc12 [Compound 447, 2-(3,4-dimethoxyphenyl)-9-ethyl-7-[(3R)-3-methylpiperazin-1-yl]-4H-pyrido[1,2-a]pyrimidin-4-one] |  | * (A maximum fold increase of ≤1.2 is indicated by one star (*)) | 0.1 to 0.3
218 to 220 | Cc1cn2cc(-c3cc(=O)n4cc(C5CCN(C)CC5)ccc4n3)ccc2n1 [Compound 448, 2-(2-methylimidazo[1,2-a]pyridin-6-yl)-7-(1-methylpiperidin-4-yl)-4H-pyrido[1,2-a]pyrimidin-4-one] | **** (an EC1.5x≤0.3 μM is indicated by four stars (****)) | ***** (a fold increase >1.65 is indicated by five stars (*****)) | < 0.1
232 to 235 | CCN(CC)C1CCN(c2ccc3nc(-c4cc5c(C)nc(C)cn5n4)cc(=O)n3c2)CC1 [Compound 451, 7-[4-(diethylamino)piperidin-1-yl]-2-(4,6-dimethylpyrazolo[1,5-a]pyrazin-2-yl)-4H-pyrido[1,2-a]pyrimidin-4-one] | *** (an EC1.5× between >0.3 μM and ≤1 μM is indicated by three stars (***)) | ***** (a fold increase >1.65 is indicated by five stars (*****)) | < 0.1
220 to 222 | Cc1cn2nc(-c3cc(=O)n4cc(C5CCN(C)CC5)ccc4n3)cc2c(C)n1 [Compound 453, 2-(4,6-dimethylpyrazolo[1,5-a]pyrazin-2-yl)-7-(1-methylpiperidin-4-yl)-4H-pyrido[1,2-a]pyrimidin-4-one] | **** (an EC1.5x≤0.3 μM is indicated by four stars (****)) | ***** (a fold increase >1.65 is indicated by five stars (*****)) | < 0.1
170 to 172 | CCN1CCC(c2ccc3nc(-c4cc5c(C)nc(C)cn5n4)cc(=O)n3c2)CC1 [Compound 454, 2-(4,6-dimethylpyrazolo[1,5-a]pyrazin-2-yl)-7-(1-ethylpiperidin-4-yl)-4H-pyrido[1,2-a]pyrimidin-4-one] | **** (an EC1.5x≤0.3 μM is indicated by four stars (****)) | ***** (a fold increase >1.65 is indicated by five stars (*****)) | < 0.1
180 to 184 | CCc1cc(N2CCN3CCC[C@@H]3C2)cn2c(=O)cc(-c3ccc(OC)c(OC)c3)nc12 [Compound 455, 2-(3,4-dimethoxyphenyl)-9-ethyl-7-[(8aR)-hexahydropyrrolo[1,2-a]pyrazin-2(1H)-yl]-4H-pyrido[1,2-a]pyrimidin-4-one] |  | ** (a fold increase between >1.2 and ≤1.35 is indicated by two stars (**)) | 0.1 to 0.3
178 to 182 | COCCNC1CCN(c2cc(C)c3nc(-c4ccc(OC)c(OC)c4)cc(=O)n3c2)CC1 [Compound 456, 2-(3,4-dimethoxyphenyl)-7-{4-[(2-methoxyethyl)amino]piperidin-1-yl}-9-methyl-4H-pyrido[1,2-a]pyrimidin-4-one] |  | *** (a fold increase between >1.35 and ≤1.5 is indicated by three stars (***)) | 0.1 to 0.3
262 to 271 | Cc1cn2nc(-c3cc(=O)n4cc(N5CCN(C)CC5)cc(C)c4n3)cc2c(C)n1 [Compound 457, 2-(4,6-dimethylpyrazolo[1,5-a]pyrazin-2-yl)-9-methyl-7-(4-methylpiperazin-1-yl)-4H-pyrido[1,2-a]pyrimidin-4-one] | **** (an EC1.5x≤0.3 μM is indicated by four stars (****)) | ***** (a fold increase >1.65 is indicated by five stars (*****)) | < 0.1
244 to 256 | Cc1cn2nc(-c3cc(=O)n4cc(N5CCN6CCC[C@@H]6C5)cc(C)c4n3)cc2c(C)n1 [Compound 458, 2-(4,6-dimethylpyrazolo[1,5-a]pyrazin-2-yl)-7-[(8aR)-hexahydropyrrolo[1,2-a]pyrazin-2(1H)-yl]-9-methyl-4H-pyrido[1,2-a]pyrimidin-4-one] | *** (an EC1.5× between >0.3 μM and ≤1 μM is indicated by three stars (***)) | **** (a fold increase between >1.5 and ≤1.65 is indicated by four stars (****)) | < 0.1
231 to 241 | Cc1cn2nc(-c3cc(=O)n4cc(N5CCC(N(C)C)CC5)cc(C)c4n3)cc2c(C)n1 [Compound 459, 7-[4-(dimethylamino)piperidin-1-yl]-2-(4,6-dimethylpyrazolo[1,5-a]pyrazin-2-yl)-9-methyl-4H-pyrido[1,2-a]pyrimidin-4-one] |  | *** (a fold increase between >1.35 and ≤1.5 is indicated by three stars (***)) | < 0.1
227 to 230 | Cc1cn2cc(-c3ccc4nc(C5CCN(C)CC5)cc(=O)n4c3)ccc2n1 [Compound 460, 7-(2-methylimidazo[1,2-a]pyridin-6-yl)-2-(1-methylpiperidin-4-yl)-4H-pyrido[1,2-a]pyrimidin-4-one] | *** (an EC1.5× between >0.3 μM and ≤1 μM is indicated by three stars (***)) | **** (a fold increase between >1.5 and ≤1.65 is indicated by four stars (****)) | 0.1 to 0.3

Structure (SMILES) | melting point [°C] | EC1.5x for Smn protein expression [1] | maximum fold (Fold) increase of Smn protein [1] | EC (1.5-fold increase) [2] [µM]
CN(C)c1ccc(-c2cc(=O)n3cc(C4=CCNCC4)ccc3n2)cn1 [Compound 444, 2-[6-(dimethylamino)pyridin-3-yl]-7-(1,2,3,6-tetrahydropyridin-4-yl)-4H-pyrido[1,2-a]pyrimidin-4-one] | 255 to 257 | ** (an EC1.5× between >1 μM and ≤3 μM is indicated by two stars (**)) | *** (a fold increase between >1.35 and ≤1.5 is indicated by three stars (***)) | 0.3 to 1
CN1CC=C(c2ccc3nc(-c4ccc5c(cnn5C)c4)cc(=O)n3c2)CC1 [Compound 449, 2-(1-methyl-1H-indazol-5-yl)-7-(1-methyl-1,2,3,6-tetrahydropyridin-4-yl)-4H-pyrido[1,2-a]pyrimidin-4-one] | 148 to 150 | **** (an EC1.5x≤0.3 μM is indicated by four stars (****)) | **** (a fold increase between >1.5 and ≤1.65 is indicated by four stars (****)) | < 0.1
CN1CC=C(c2ccc3nc(-c4ccc(N(C)C)nc4)cc(=O)n3c2)CC1 [Compound 450, 2-[6-(dimethylamino)pyridin-3-yl]-7-(1-methyl-1,2,3,6-tetrahydropyridin-4-yl)-4H-pyrido[1,2-a]pyrimidin-4-one] | 214 to 216 |  | ** (a fold increase between >1.2 and ≤1.35 is indicated by two stars (**)) | 0.3 to 1
